The target of assay [1] is T1, Inhibitor of nuclear factor kappa-B kinase subunit epsilon (Homo sapiens, UniProt Q14164).
T1 sequence (Q14164 whole entry): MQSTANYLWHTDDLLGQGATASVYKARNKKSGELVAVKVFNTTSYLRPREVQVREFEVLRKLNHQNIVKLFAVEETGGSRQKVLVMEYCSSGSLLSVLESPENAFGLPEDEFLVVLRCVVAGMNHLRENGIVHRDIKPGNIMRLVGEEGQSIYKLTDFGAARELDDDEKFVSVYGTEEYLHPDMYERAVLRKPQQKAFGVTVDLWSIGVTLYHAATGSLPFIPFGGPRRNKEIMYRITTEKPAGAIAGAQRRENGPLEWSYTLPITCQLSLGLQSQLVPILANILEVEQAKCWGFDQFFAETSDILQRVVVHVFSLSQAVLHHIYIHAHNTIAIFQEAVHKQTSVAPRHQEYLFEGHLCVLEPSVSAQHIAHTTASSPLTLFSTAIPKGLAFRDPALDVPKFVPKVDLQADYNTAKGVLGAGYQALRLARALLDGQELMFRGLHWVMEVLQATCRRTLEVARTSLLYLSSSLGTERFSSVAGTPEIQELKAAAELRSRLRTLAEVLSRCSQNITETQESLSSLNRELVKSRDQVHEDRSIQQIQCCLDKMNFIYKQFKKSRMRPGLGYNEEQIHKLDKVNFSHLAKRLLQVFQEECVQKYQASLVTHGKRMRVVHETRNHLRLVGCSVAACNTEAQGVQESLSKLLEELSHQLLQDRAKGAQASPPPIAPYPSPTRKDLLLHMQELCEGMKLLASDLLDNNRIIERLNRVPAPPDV

Assay [2] addresses T2, Ephrin type-A receptor 1 (Homo sapiens, UniProt P21709).
T2 sequence (P21709 whole entry): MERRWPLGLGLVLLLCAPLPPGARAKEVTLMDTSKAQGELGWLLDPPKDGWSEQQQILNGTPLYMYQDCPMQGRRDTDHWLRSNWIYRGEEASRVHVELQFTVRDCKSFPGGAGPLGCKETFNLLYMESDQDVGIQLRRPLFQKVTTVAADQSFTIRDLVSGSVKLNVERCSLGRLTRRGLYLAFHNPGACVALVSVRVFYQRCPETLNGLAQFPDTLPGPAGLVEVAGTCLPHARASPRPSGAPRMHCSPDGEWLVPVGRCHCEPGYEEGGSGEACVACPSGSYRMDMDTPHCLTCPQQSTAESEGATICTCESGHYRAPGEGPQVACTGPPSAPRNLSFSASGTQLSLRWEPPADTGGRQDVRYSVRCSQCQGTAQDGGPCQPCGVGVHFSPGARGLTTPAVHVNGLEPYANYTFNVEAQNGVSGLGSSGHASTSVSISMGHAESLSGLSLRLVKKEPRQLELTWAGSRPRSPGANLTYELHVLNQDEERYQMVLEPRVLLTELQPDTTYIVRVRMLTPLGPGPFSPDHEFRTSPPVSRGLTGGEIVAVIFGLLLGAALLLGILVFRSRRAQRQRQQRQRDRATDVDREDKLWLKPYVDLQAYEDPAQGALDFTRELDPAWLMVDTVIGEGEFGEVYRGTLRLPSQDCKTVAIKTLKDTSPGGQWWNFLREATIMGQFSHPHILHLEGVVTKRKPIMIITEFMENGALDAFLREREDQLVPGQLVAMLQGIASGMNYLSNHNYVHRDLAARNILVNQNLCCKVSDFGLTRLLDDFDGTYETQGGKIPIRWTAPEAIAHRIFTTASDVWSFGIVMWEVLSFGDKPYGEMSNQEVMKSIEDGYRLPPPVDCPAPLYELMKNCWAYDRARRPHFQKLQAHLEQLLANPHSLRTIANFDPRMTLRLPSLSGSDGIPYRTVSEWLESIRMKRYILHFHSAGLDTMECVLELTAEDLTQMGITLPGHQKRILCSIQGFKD

For assay [3], the target named is T3, Thyroid hormone receptor-associated protein 3 (Homo sapiens, UniProt Q9Y2W1).
T3 sequence (Q9Y2W1 whole entry): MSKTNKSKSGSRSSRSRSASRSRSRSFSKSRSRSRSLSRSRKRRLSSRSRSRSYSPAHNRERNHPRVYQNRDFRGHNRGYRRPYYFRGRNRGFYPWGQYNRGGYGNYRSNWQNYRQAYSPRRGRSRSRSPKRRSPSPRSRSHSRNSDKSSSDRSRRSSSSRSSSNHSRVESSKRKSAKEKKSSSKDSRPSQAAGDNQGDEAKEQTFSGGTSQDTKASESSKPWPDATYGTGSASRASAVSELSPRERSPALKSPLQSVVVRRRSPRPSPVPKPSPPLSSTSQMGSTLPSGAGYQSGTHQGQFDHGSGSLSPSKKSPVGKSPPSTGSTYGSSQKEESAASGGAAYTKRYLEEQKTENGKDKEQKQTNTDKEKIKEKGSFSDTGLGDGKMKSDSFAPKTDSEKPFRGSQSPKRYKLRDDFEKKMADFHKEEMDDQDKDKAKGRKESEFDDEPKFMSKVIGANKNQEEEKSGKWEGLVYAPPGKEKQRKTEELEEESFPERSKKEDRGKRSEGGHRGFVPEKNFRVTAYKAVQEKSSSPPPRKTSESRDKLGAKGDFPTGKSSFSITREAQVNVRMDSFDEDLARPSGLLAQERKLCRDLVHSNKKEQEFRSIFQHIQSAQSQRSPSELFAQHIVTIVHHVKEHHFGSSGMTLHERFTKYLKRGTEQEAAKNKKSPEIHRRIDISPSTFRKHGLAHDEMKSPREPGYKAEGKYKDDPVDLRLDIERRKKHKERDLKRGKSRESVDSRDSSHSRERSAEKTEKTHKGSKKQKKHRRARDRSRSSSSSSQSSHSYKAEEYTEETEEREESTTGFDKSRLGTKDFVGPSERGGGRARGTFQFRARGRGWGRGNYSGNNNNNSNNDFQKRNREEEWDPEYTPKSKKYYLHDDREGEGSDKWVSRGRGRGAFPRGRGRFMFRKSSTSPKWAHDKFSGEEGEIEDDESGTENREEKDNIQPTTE

Assay [4] deals with Serine/threonine-protein kinase MRCK gamma (Homo sapiens, UniProt Q6DT37).
In assay [5] the target is Misshapen-like kinase 1 (Homo sapiens, UniProt Q8N4C8).

Activity calls are given as the source filed them.

For orientation: Kd means the constant that tells how readily two partners part at equilibrium.
Also: in the data inactive means no Kd found up to 30 µM.

Serine/threonine-protein kinase MRCK gamma, sequence (Q6DT37 whole entry): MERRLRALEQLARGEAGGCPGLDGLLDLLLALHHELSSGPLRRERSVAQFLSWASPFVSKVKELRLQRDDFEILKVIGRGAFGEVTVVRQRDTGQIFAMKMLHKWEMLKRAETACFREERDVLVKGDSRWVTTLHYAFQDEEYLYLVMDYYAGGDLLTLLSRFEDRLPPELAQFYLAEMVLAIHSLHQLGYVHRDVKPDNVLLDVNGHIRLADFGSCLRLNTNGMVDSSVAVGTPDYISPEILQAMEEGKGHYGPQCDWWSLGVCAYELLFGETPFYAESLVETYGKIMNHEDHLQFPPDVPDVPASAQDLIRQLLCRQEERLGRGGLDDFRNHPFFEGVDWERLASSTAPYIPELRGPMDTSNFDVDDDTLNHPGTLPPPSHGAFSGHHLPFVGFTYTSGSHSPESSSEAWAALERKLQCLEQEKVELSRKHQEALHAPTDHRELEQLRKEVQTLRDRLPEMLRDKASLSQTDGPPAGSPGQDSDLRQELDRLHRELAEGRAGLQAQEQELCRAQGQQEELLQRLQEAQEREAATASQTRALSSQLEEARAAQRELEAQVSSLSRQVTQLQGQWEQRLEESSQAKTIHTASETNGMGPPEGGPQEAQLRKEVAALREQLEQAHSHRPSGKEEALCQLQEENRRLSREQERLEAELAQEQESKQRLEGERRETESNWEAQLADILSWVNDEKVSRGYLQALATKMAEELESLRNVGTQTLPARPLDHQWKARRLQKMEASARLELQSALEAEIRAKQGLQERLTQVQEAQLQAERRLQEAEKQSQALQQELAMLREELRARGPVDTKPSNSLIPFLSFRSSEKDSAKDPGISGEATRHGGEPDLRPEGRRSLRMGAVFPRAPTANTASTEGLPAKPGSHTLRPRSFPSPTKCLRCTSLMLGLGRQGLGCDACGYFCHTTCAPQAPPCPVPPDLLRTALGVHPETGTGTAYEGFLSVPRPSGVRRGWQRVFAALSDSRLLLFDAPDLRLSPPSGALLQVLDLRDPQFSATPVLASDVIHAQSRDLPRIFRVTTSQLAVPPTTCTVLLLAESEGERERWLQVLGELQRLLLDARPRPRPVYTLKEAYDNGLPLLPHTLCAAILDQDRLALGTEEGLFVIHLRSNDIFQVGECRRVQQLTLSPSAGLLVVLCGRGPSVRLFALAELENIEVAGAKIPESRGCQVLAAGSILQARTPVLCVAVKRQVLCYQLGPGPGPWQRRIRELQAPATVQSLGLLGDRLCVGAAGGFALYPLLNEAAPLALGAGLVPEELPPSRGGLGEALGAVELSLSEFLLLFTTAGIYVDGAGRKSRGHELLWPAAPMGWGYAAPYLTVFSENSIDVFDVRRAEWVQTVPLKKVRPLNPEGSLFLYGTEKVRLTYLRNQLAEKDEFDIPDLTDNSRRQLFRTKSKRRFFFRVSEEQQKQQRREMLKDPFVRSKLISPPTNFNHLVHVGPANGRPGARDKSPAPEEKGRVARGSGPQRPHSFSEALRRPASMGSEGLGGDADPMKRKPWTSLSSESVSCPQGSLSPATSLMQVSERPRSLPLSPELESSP
Misshapen-like kinase 1, sequence (Q8N4C8 whole entry): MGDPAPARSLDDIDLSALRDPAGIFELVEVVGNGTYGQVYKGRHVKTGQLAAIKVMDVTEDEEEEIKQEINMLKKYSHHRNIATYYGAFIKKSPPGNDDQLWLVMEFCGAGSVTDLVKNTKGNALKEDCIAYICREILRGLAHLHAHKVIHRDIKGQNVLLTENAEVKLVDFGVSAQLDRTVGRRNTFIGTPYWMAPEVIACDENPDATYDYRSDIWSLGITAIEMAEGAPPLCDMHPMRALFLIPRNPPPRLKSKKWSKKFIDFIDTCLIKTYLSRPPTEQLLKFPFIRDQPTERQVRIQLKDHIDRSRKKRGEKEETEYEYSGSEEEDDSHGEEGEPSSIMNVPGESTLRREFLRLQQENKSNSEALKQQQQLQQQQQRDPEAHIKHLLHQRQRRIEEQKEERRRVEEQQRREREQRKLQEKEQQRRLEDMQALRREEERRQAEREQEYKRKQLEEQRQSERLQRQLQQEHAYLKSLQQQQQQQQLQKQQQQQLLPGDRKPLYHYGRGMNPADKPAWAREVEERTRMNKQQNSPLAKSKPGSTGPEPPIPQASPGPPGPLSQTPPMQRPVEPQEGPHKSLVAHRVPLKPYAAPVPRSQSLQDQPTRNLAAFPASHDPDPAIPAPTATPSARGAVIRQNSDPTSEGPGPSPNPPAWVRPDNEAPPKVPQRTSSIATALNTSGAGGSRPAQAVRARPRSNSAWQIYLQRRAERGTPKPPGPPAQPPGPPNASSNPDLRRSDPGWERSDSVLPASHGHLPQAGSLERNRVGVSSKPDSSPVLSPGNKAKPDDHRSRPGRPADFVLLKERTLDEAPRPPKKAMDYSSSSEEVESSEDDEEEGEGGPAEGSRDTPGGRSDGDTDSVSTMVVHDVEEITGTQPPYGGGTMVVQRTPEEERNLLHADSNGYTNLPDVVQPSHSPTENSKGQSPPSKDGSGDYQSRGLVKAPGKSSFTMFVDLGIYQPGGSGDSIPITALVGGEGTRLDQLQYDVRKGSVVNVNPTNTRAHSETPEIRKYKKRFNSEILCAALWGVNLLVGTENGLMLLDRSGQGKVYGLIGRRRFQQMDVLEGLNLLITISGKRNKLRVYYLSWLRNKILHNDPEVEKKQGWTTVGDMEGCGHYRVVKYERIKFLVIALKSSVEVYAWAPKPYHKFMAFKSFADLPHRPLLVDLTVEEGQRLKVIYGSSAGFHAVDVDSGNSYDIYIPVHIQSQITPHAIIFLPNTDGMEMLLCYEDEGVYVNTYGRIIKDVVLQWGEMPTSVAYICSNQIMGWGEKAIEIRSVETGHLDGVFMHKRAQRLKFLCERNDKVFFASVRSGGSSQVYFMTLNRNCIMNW

As to `CN1CCC(CNc2ccc3ncc(-c4cccc(OC(F)(F)F)c4)n3n2)CC1` [SGI-1776], the Kd in assay [1], in assay [2], in assay [3], in assay [4] and in assay [5] was > 30 µM (inactive) in each case.

Turning to `CC(=O)Nc1cccc(-n2c(=O)n(C3CC3)c(=O)c3c(Nc4ccc(I)cc4F)n(C)c(=O)c(C)c32)c1` [TRAMETINIB], the Kd in assay [1], in assay [2], in assay [3], in assay [4] and in assay [5] was > 30 µM (inactive) throughout.

Regarding `COC(=O)[C@@]1(O)C[C@H]2O[C@]1(C)n1c3ccccc3c3c4c(c5c6ccccc6n2c5c31)C(=O)NC4` [K-252A], the Kd in assay [1] is 0.494 µM (active); in assay [2], > 30 µM (inactive); in assay [3], > 30 µM (inactive); in assay [4], > 30 µM (inactive); in assay [5], > 30 µM (inactive).

Consider `CN1CCC(COc2cnc(-c3cccc(Cn4nc(-c5cccc(C#N)c5)ccc4=O)c3)nc2)CC1` [TEPOTINIB], for which the Kd in assay [1], in assay [2], in assay [3], in assay [4] and in assay [5] was > 30 µM (inactive) each time.

As to `COc1cc2nccc(Oc3ccc(NC(=O)NC4CC4)c(Cl)c3)c2cc1C(N)=O` [LENVATINIB], the Kd in assay [1], in assay [2], in assay [3], in assay [4] and in assay [5] was > 30 µM (inactive) each time.

In the case of `Cn1cc(-c2ccc(F)c(C(F)(F)F)c2)nc1C1CCN(c2ncnc3[nH]ncc23)CC1` [LY-2584702], the Kd in assay [1], in assay [2], in assay [3], in assay [4] and in assay [5] was > 30 µM (inactive) throughout.

Take `COC(=O)N[C@@H](C)CNc1nccc(-c2cn(C(C)C)nc2-c2cc(Cl)cc(NS(C)(=O)=O)c2F)n1` [ENCORAFENIB]: the Kd in assay [1], in assay [2], in assay [3], in assay [4] and in assay [5] was > 30 µM (inactive) each time.

For the molecule `O=C1NC(=O)/C(=C/c2ccc3nccc(-c4ccncc4)c3c2)S1` [GSK-1059615], the Kd in assay [1], in assay [2], in assay [3], in assay [4] and in assay [5] was > 30 µM (inactive) each time.

For the molecule `CC[C@@H]1C(=O)N(C)c2cnc(Nc3ccc(C(=O)N[C@H]4CC[C@H](N5CCN(CC6CC6)CC5)CC4)cc3OC)nc2N1C(C)C` [VOLASERTIB], the Kd in assay [1], in assay [2], in assay [3], in assay [4] and in assay [5] was > 30 µM (inactive) throughout.

For `O=c1sn(-c2cccc3ccccc23)c(=O)n1Cc1ccccc1` [TIDEGLUSIB], the Kd in assay [1], in assay [2], in assay [3], in assay [4] and in assay [5] was > 30 µM (inactive) throughout.

The values are drawn from ChEMBL document CHEMBL3991601, “The target landscape of clinical kinase drugs” (Science, 2017).
